Reference: paper PMC13044524 (Molecular Cancer Therapeutics, 2025)

Assays:
uterine tissue = experiment: Rat uterine wet weight assay; type: in vivo, Sprague–Dawley CD-IGS rats; settings: immature rats; for epithelia height of uterine tissue (histologic staining): 3 days, compared with vehicle; for uterine wet weight (UWW): once daily for 3 days
MCF-7 cells = experiment: Cell proliferation assay, MCF-7; type: cell-based; settings: Homo sapiens, MCF7, 144 h, read-out: IC50 E2-mediated proliferation
[1] = system: bone (femur and tibia) of OVX mice; experiment: Osteoporosis; type: in vivo, C57BL/6 mice; settings: 12 weeks of treatment

With C[C@@H]1Cc2c([nH]c3ccccc23)[C@@H](c2c(F)cc(/C=C/C(=O)O)cc2F)N1CC(C)(C)F [AZD9496, (E)-3-(3,5-Difluoro-4-((1R,3R)-2-(2-fluoro-2-methylpropyl)-3-methyl-2,3,4,9-tetrahydro-1H-pyrido[3,4-b]indol-1-yl)phenyl)acrylic acid] as the compound, how does the “epithelia height of uterine tissue (histologic staining)” value (uterine tissue) read?
Its value is “slightly increased”.

And the “uterine wet weight (UWW)” value (uterine tissue)?
Its value is “did not affect uterine weight significantly”.

For CCNCCc1ccc(CN(CC)c2cc(OC)ccc2[C@@H]2CCc3cc(O)ccc3C2)cc1 [elacestrant], which IC50 (MCF-7 cells) is on record?
The IC50 was 0.3 nM.

Which results are given for C[C@]12CC[C@@H]3c4ccc(O)cc4C[C@@H](CCCCCCCCC[S+]([O-])CCCC(F)(F)C(F)(F)F)[C@H]3[C@@H]1CC[C@@H]2O (stereo partly drawn) [Fulvestrant]?
bone mineral density (BMD) of femur and tibia [1]: further decreased BMD; uterine wet weight (UWW) (uterine tissue): seemed to decrease uterine weight; IC50 (MCF-7 cells): 0.2 nM

How did the “bone mineral density (BMD) of femur and tibia” value [1] turn out when CC/C(=C(\c1ccccc1)c1ccc(OCCN(C)C)cc1)c1ccccc1 [Tamoxifen] was run?
Its value is “significantly increased BMD”.

What about the “epithelia height of uterine tissue (histologic staining)” value (uterine tissue) of the same compound?
The value was “dramatically increased”.

What about the “uterine wet weight (UWW)” value (uterine tissue) of the same compound?
Its value is “significantly increase UWW”.
